Reference: patent US20250051344A1, “BIFUNCTIONAL SELECTIVE DEGRADERS OF SMARCA2 AND THERAPEUTIC USES THEREOF” (Nurix Therapeutics, Inc., priority 2023, published 2025)

What was measured:
SMARCA4 = target: T1, SMARCA4 (Homo sapiens, UniProt P51532); assay: Cellular degradation assay, SMARCA4 (Table 1); type: cell-based
T1 construct: endogenous in cells

SMARCA2 = target: T2, SMARCA2 (Homo sapiens, UniProt P51531); assay: SMARCA2 Cellular Degradation Assay (Western blot analysis on Jess platform); type: cell-based; conditions: for DC50 / Dmax: cellular degradation; for Fold Selectivity SMARCA4/2: ratio DC50 SMARCA4 / DC50 SMARCA2
T2 construct: endogenous in cells
T2 sequence (P51531 whole entry, species assumed): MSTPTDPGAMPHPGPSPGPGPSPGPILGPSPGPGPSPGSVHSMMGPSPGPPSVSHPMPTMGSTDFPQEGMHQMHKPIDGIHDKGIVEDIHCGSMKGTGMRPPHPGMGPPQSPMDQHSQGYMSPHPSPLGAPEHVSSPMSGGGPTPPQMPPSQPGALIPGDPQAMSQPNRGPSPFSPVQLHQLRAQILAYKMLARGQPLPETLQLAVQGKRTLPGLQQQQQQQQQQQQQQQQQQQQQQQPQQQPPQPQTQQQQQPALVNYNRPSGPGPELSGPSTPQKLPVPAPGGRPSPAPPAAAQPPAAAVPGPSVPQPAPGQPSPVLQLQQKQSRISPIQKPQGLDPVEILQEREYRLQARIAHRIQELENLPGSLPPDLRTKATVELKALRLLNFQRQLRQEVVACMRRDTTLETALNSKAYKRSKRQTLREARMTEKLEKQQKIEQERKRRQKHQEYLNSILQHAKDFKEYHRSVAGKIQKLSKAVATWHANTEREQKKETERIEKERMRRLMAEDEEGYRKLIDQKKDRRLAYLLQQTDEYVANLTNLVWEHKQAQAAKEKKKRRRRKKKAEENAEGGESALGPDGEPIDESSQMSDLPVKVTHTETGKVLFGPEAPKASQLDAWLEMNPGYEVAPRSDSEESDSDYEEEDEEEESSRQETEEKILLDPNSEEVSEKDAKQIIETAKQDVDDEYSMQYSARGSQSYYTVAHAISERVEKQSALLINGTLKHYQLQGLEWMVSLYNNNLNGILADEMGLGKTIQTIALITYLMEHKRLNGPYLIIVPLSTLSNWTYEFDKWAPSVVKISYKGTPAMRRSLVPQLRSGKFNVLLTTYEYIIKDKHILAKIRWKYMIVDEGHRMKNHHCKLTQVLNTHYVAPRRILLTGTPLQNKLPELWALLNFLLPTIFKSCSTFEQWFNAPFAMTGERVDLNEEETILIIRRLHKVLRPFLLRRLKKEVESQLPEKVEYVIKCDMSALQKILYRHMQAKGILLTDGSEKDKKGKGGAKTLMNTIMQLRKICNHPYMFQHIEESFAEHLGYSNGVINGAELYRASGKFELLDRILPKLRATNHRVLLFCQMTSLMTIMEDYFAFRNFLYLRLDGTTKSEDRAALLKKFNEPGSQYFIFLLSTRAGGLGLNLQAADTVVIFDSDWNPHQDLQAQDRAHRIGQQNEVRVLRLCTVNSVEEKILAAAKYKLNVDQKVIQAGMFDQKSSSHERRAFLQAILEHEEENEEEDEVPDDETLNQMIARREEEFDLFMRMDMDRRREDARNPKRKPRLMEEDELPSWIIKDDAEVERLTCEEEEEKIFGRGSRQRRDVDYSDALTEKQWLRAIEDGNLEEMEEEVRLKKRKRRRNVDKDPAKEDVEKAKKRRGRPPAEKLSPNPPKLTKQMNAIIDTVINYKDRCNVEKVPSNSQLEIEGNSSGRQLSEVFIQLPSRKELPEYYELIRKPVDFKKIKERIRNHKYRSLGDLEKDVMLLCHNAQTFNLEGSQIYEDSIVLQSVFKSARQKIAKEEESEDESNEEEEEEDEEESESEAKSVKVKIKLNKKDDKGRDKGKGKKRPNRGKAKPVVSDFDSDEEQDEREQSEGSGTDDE
Protocol: SMARCA2 Cellular Degradation Assay
Western Blot Analysis for SMARCA2 Degradation
Frozen cell pellets were thawed on ice and resuspended in RIPA lysis buffer (Millipore, Cat. No. 20-188) supplemented with 0.2% SDS (Fisher Scientific, Cat. No. 24730020), 200 mM β-glycerophosphate (Alfa Aesar, Cat. No. J62121), 500 mM NaF (Rigaku, Cat. No. 1008046), protease inhibitor (1 tablet per 10 mL, Sigma, Cat. No. 11836170001), 250 U/μL benzonase (Millipore, Cat. No. 71206), 200 mM sodium orthovanadate (FivePhoton, Cat. No. ActVO-4), and 100 mM PMSF (Sigma, Cat. No. 10837091001). 50 μL lysis buffer was used to lyse each pellet containing 5×10E5-1×10E6 live cells extracted from tumors. Lysates were centrifuged for 10 mins at 20,817×g and lysate supernatants were saved for further analysis. Protein levels were determined by the BCA Assay performed according to manufacturer's protocol (EMD Millipore, Cat. No. 71285-3). Samples were evaluated by Western blot analysis on the Jess Platform (ProteinSimple). Lysates were diluted with complete lysis buffer (as described above) and 5 μg of total proteins were loaded onto each capillary. Samples were prepared using the ProteinSimple EZ Standard Pack 1 (Cat. No. PS-ST01EZ-8; containing tubes with powdered (5×) Fluorescent Master Mix, DTT, and biotinylated ladder) and run using the ProteinSimple 25-Capillary Cartridge kit (Cat. No. SM-W004; containing 25-capillary cartridge Wash reagent, and 10× Sample Buffer reagent), the ProteinSimple Anti-Rabbit HRP Detection Module for Jess (Cat. No. DM-001; containing Antibody Diluent, anti-rabbit secondary antibody, Luminol-S, Peroxide, and Streptavidin-HRP), and the ProteinSimple Anti-Mouse NIR Detection Module for Jess (Cat. No. DM-009; containing Antibody Diluent, anti-mouse NIR secondary antibody, and Streptavidin-NIR) as the following describes. The DTT was reconstituted with 40 μL water to make a 400 mM solution, 20 μL of the DTT solution plus 20 μL of 10× Sample Buffer were added to reconstitute the 5× Fluorescent Master Mix, and 20 μL of H2O was used to reconstitute the biotinylated ladder. For each sample, lysate (4 μL) was combined with 5× Fluorescent Master Mix (1 μL) and heated at 95° C. for 5 minutes. Samples were cooled and stored on ice. Primary antibody solution was made using anti-SMARCA2 antibody (Abcam, Cat. No. 240648, 1:10) and anti-beta-Actin antibody (Cell Signaling Technology, Cat. No. 3700S, 1:25) in antibody diluent. The 25-capillary cartridges were prepared per standard ProteinSimple protocol with each sample in a column. For the biotinylated ladder in column 1, the following were added: 5 µL of ladder sample in Row A, 10 μL of antibody diluent in Rows B and C, 10 μL of Streptavidin-NIR in Row D, and 15 μL of a 50:50 Luminol-s/Peroxide solution in Row E. For each test sample (columns 2-25), the following were added per column: 5 μL of sample in Row A, 10 μL of antibody diluent in Row B, 10 μL of primary antibody solution in Row C, 10 μL of secondary antibody in Row D, and 15 μL of a 50:50 Luminol-S/Peroxide solution in Row E. 500 μL wash buffer was added to the wash buffer wells in the cartridge and cartridge was spun at 1000×g for 5 minutes prior to loading into the Jess. Samples were run using the Chemiluminescence and Fluorescence immunoassays in the ProteinSimple Compass for SimpleWestern program (version 5.0.0). After running, SMARCA2, actin, and background curves were identified in the Compass software; note that in the Compass software, the electropherograms are also visualized as bands for comparison with standard Western blot outputs. The electropherogram area reading for each sample curve was normalized to that of the corresponding actin curve per column following background (capillary background) subtraction using the following equation: […]
Following normalization, the percentage of SMARCA2 remaining per sample relative to the vehicle control was calculated as follows: […]

T1 sequence (P51532 whole entry, species assumed): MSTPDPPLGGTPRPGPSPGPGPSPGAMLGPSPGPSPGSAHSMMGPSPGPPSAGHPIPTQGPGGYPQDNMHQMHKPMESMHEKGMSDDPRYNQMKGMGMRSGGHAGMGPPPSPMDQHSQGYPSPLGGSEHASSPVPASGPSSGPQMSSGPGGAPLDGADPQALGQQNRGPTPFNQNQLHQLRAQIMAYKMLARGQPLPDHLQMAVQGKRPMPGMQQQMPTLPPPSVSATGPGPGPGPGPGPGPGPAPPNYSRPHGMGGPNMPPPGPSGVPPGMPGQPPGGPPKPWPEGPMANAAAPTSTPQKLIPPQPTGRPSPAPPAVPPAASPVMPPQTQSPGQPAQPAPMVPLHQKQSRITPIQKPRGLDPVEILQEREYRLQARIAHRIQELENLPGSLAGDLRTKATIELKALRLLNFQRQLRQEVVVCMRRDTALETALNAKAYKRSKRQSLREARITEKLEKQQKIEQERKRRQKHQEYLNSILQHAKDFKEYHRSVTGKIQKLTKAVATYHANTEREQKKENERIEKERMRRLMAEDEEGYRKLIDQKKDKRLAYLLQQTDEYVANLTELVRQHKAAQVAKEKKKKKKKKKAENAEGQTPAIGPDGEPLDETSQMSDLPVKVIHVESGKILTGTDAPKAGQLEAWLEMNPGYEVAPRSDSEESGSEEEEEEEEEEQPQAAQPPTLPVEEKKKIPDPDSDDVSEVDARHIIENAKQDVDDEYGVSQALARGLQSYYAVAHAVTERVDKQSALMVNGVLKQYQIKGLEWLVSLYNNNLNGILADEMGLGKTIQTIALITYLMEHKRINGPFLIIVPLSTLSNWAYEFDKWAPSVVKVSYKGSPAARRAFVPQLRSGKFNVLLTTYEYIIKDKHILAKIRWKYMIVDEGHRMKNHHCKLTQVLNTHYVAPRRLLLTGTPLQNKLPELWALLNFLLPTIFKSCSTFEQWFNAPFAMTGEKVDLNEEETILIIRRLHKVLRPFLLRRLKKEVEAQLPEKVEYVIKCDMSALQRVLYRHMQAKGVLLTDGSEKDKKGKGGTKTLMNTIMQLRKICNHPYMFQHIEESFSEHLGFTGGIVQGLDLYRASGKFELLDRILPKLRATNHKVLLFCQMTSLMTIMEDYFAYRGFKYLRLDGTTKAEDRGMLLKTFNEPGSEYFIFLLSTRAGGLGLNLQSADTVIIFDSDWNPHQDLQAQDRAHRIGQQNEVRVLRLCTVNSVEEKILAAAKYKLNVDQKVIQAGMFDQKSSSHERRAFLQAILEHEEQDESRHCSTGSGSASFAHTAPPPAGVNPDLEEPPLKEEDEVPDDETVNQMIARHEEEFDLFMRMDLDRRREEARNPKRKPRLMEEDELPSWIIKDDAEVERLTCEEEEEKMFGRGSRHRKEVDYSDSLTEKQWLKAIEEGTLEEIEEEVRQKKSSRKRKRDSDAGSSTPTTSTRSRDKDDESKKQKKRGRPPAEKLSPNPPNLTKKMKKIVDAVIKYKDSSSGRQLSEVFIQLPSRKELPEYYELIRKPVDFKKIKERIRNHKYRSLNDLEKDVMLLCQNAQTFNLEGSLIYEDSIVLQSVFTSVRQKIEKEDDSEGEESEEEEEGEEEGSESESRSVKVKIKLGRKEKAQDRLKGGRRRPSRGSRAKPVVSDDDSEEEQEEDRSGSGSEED

SMILES | DC50 (SMARCA4) [nM] | Dmax (SMARCA4) [%] | DC50 (SMARCA2) [nM] | Dmax (SMARCA2) [%] | Fold Selectivity SMARCA4/2 (SMARCA2)
O=C1CC[C@H](c2ccc(N3CCC(CN4CC5(C4)CN(C(=O)C4(Oc6ccccc6Cl)CCN(c6cnnc(-c7ccccc7O)c6)CC4)C5)CC3)cc2)C(=O)N1 [Example 119, (r)-3-(4-(4-((6-(4-(2-chlorophenoxy)-1-(6-(2-hydroxyphenyl)pyridazin-4-yl)piperidine-4-carbonyl)-2,6-diazaspiro[3.3]heptan-2-yl)methyl)piperidin-1-yl)phenyl)piperidine-2,6-dione] | 20.3 | 79.4 | 3.52 | 89.2 | 6
N#CC1(CN2CCN(c3ccc([C@@H]4CCC(=O)NC4=O)cc3)CC2)CC12CCN(C(=O)C1(c3ccccc3)CCN(c3cnnc(-c4ccccc4O)c3)CC1)CC2 (mixture of isomers) [Example 171, rac-1-[(4-{4-[(3R)-2,6-dioxopiperidin-3-yl]phenyl}piperazin-1-yl)methyl]-6-{1-[6-(2-hydroxyphenyl)pyridazin-4-yl]-4-phenylpiperidine-4-carbonyl}-6-azaspiro[2.5]octane-1-carbonitrile] | 1000 | 41.4 | 28.5 | 69.5 | 35
O=C1CC[C@H](c2ccc(N3CCC(CCN4CCC[C@@H]4C(=O)NCC4(c5ccccc5)CCN(c5cnnc(-c6ccccc6O)c5)CC4)CC3)cc2)C(=O)N1 (racemic) [Example 107, (r)-1-(2-(1-(4-((rs)-2,6-dioxopiperidin-3-yl)phenyl)piperidin-4-yl)ethyl)-n-((1-(6-(2-hydroxyphenyl)pyridazin-4-yl)-4-phenylpiperidin-4-yl)methyl)pyrrolidine-2-carboxamide] | – | 29.4 | 41.3 | 58.8 | 242
CN(C(=O)C1(OC2CCCCC2)CCN(c2cnnc(-c3ccccc3O)c2)CC1)C1CCN(C(=O)CN2CCC(c3ccc([C@@H]4CCC(=O)NC4=O)cc3)CC2)CC1 (racemic) [Example 117, rac-4-(cyclohexyloxy)-n-(1-(2-(4-(4-(2,6-dioxopiperidin-3-yl)phenyl)piperidin-1-yl)acetyl)piperidin-4-yl)-1-(6-(2-hydroxyphenyl)pyridazin-4-yl)-n-methylpiperidine-4-carboxamide] | 153 | 62.4 | 16.7 | 82.1 | 9
O=C1CC[C@H](c2ccc(N3CCC(CN4CCC5(C4)CN(C(=O)C4(c6ccccc6)CCN(c6cnnc(-c7ccccc7O)c6)CC4)C5)CC3)cc2)C(=O)N1 [Example 17, (3R)-3-(4-{4-[(2-{1-[6-(2-hydroxyphenyl)pyridazin-4-yl]-4-phenylpiperidine-4-carbonyl}-2,6-diazaspiro[3.4]octan-6-yl)methyl]piperidin-1-yl}phenyl)piperidine-2,6-dione] | 4370 | 54.2 | 13.9 | 78 | 314.31
CC1(NC(=O)C2(c3ccccc3)CCN(c3cnnc(-c4ccccc4O)c3)CC2)CCN(CC2CCN(c3ccc(N[C@@H]4CCC(=O)NC4=O)cn3)CC2)CC1 (racemic) [Example 99, rac-(r)-n-(1-((1-(5-((2,6-dioxopiperidin-3-yl)amino)pyridin-2-yl)piperidin-4-yl)methyl)-4-methylpiperidin-4-yl)-1-(6-(2-hydroxyphenyl)pyridazin-4-yl)-4-phenylpiperidine-4-carboxamide] | – | 46.9 | 48.1 | 57.3 | 208
COC1(C(=O)N2CCC3(CC2)CN(CC2CCN(c4ccc([C@H]5CCC(=O)NC5=O)cc4)CC2)C3)CCN(c2cnnc(-c3ccccc3O)c2)CC1 [Example 120, (r)-3-(4-(4-((7-(1-(6-(2-hydroxyphenyl)pyridazin-4-yl)-4-methoxypiperidine-4-carbonyl)-2,7-diazaspiro[3.5]nonan-2-yl)methyl)piperidin-1-yl)phenyl)piperidine-2,6-dione] | – | 50 | 7.6 | 78.4 | 1316
CN(C(=O)C1(c2ccccc2)CCN(c2cnnc(-c3ccccc3O)c2)CC1)C1CCN(CC2CCN(c3cccc([C@@H]4CCC(=O)NC4=O)c3)CC2)CC1 (racemic) [Example 102, rac-(r)-n-(1-((1-(3-(2,6-dioxopiperidin-3-yl)phenyl)piperidin-4-yl)methyl)piperidin-4-yl)-1-(6-(2-hydroxyphenyl)pyridazin-4-yl)-n-methyl-4-phenylpiperidine-4-carboxamide] | 295 | 54.4 | 26.3 | 77.7 | 11
O=C1CCC(c2ccc(OCC3CCN(C(=O)C4(c5ccccc5)CCN(c5cnnc(-c6ccccc6O)c5)CC4)CC3)cc2)C(=O)N1 (racemic) [Example 5, rac-(3R)-3-{4-[(1-{1-[6-(2-hydroxyphenyl)pyridazin-4-yl]-4-phenylpiperidine-4-carbonyl}piperidin-4-yl)methoxy]phenyl}piperidine-2,6-dione] | – | 22.6 | 463 | 59.8 | 21.62
O=C1CCC(c2c(F)cc(N3CCC(CN4CC[C@@H](NC(=O)C5(c6ccccc6)CCN(c6cnnc(-c7ccccc7O)c6)CC5)CC45CCC5)CC3)cc2F)C(=O)N1 (mixture of isomers) [Example 188, N-[(8RS&)-5-[(1-{4-[(3RS)-2,6-dioxopiperidin-3-yl]-3,5-difluorophenyl}piperidin-4-yl)methyl]-5-azaspiro[3.5]nonan-8-yl]-1-[6-(2-hydroxyphenyl)pyridazin-4-yl]-4-phenylpiperidine-4-carboxamide] | 245 | 57.8 | 1.71 | 90.6 | 143
CN(C(=O)C1(OC2CC2)CCN(c2cnnc(-c3ccccc3O)c2)CC1)C1CCN(C(=O)CN2CCC(c3ccc([C@@H]4CCC(=O)NC4=O)cc3)CC2)CC1 (racemic) [Example 115, rac-4-cyclopropoxy-n-(1-(2-(4-(4-(2,6-dioxopiperidin-3-yl)phenyl)piperidin-1-yl)acetyl)piperidin-4-yl)-1-(6-(2-hydroxyphenyl)pyridazin-4-yl)-n-methylpiperidine-4-carboxamide] | – | 45.2 | 10.7 | 77.6 | 937
Cc1cnn(C2(C(=O)N(C)C3CCN(CC4CCN(c5ccc([C@H]6CCC(=O)NC6=O)cc5)CC4)CC3)CCN(c3cnnc(-c4ccccc4O)c3)CC2)c1 [Example 154, N-{1-[(1-{4-[(3R)-2,6-dioxopiperidin-3-yl]phenyl}piperidin-4-yl)methyl]piperidin-4-yl}-1-[6-(2-hydroxyphenyl)pyridazin-4-yl]-N-methyl-4-(4-methyl-1H-pyrazol-1-yl)piperidine-4-carboxamide] | 22.3 | 65.6 | 2.87 | 87.7 | 8
